Experimental data: patent US20240216412A1, “OXIDIZED NICOTINAMIDE ADENINE DINUCLEOTIDE (NAD+) PRECURSOR TREATMENT FOR HEART FAILURE ALLEVIATION INDEPENDENT OF MITOCHONDRIAL PROTEIN DEACETYLATION” (University of Washington, priority 2022, published 2024)

Tests used:
[1] = tested on: isoproterenol (ISO) induced heart failure in WT and Sirt3Ko mice; test: Isoproterenol (ISO) minipump induced heart failure, echocardiography and HW/TL; assay type: in vivo, mouse; conditions: 14 days of ISO, NR 500 mg/kg body weight IP daily
Method: Minipump implantation. Pathologic hypertrophy was induced by treating male (3-4 months old) Sirt3ko and WT mice with isoproterenol (ISO) or vehicle for 14 days. Mice with and without GW6471(4.5 mg/kg/day) were treated with NR (500 mg/kg body weight IP daily) or vehicle starting at day one after mini-pump insertion. Briefly, an incision was made in the skin between the shoulder blades. A deep subcutaneous pocket was made caudal to the incision using blunt dissection. The sterile minipump (Alzet #2002) was inserted into the pocket, and the incision was closed with wound clips. Isoproterenol (30 mg/kg/day) was delivered by osmotic minipump for 14 days. Minipumps carrying saline were used as a control.
Transthoracic Echocardiography. Echocardiography of hearts was performed at indicated time after surgery using the VEVO 2100 high-frequency, high-resolution digital imaging system (VisualSonics) equipped with a MS400 Microscan Transducer on anesthetized mice (0.5%-2% isoflurane in 95% oxygen). Measurements were made when heart rate was >450 bpm. Cardiac function and geometry measurements were measured in parasternal short axis view. M-mode images were used for analysis and calculated by the average of at least three cardiac cycles and carried out in a blind fashion. Hearts were harvested at 12-week post-surgery for subsequent experiments and biochemical assays.
Organ weight and histological assessment. Hearts from mice were harvested, rinsed briefly in 1×PBS, blotted dry, and weighed. Lungs from the same mice were harvested, weighed, then dried at 56 C. After 72 hours the lungs were weighed again. Heart weight (HW) and Lung weight (LW) was normalized to tibia length (TL) to assess changes in hypertrophic growth and lung edema, respectively. For histology, hearts were perfusion fixed with 10% neutral buffered formalin. Longitudinal sections of hearts were stained with Masson's Trichrome for assessment of fibrosis by the University of Washington Histology and Imaging Core.

[2] = tested on: NAD+ salvage pathway / NAD(H) redox in mouse heart; test: Cardiac NAD+/NADH determination and targeted LC-MS metabolomics in TAC hearts; assay type: in vivo
Method: NAD^+/NADH determination. NAD^+ and NADH were determined in 8 mg heart tissue using BioAssay Systems EnzyChrom NAD^+/NAD Assay Kit (E2ND-100) per manufactures instructions.
Targeted Metabolomics. Analysis of metabolites was done by The Northwest Metabolomics Research Center at the University of Washington. Briefly, aqueous metabolites for targeted LC-MS profiling of heart tissue samples were extracted from frozen heart tissue (10 mg) by precipitating in 80:20% methanol:water. After centrifugation, the supernatant was transferred to LC/MS auto sampler vials (Thermo Fisher). The protein pellet was redissolved in 0.1M NaOH and protein concentration measured for normalization. Samples were first homogenized in 200 μL purified deionized water at 4° C., and then 800 μL of cold methanol. Afterwards samples were vortexed, stored for 30 minutes at −20° C., sonicated in an ice bath for 10 minutes, centrifuged for 15 min at 14,000 rpm and 4° C., and then 600 μL of supernatant was collected from each sample. […] Samples were transferred into LC vials and placed into a temperature controlled autosampler for LC-MS analysis.
LC-MS Assay. Targeted LC-MS metabolite analysis was performed on a duplex-LC-MS system composed of two Shimadzu UPLC pumps, CTC Analytics PAL HTC-xt temperature-controlled auto-sampler (set at 4° C.) and AB Sciex 6500+ Triple Quadrupole MS equipped with ESI ionization source (2). UPLC pumps were connected to the autosampler in parallel and were able to perform two chromatography separations independently from each other. Each sample was injected twice on two identical analytical columns (Waters XBridge BEH Amide XP) performing separations in hydrophilic interaction liquid chromatography (HILIC) mode. While one column was performing separation and MS data acquisition in ESI+ ionization mode, the other column was getting equilibrated for sample injection, chromatography separation and MS data acquisition in ESI-mode. Each chromatography separation was 18 minutes (total analysis time per sample was 36 minutes). MS data acquisition was performed in multiple-reaction-monitoring (MRM) mode. LC-MS system was controlled using AB Sciex Analyst 1.6.3 software. Measured MS peaks were integrated using AB Sciex MultiQuant 3.0.3 software. The LC-MS assay was targeting 361 metabolites (plus 2 spiked reference internal standards). Up to 192 metabolites (plus 2 spiked standards) were measured across the study set, and over 95% of measured metabolites were measured across all the samples. In the addition to the study samples, two sets of quality control (QC) samples were used to monitor the assay performance as well as data reproducibility. One QC [QC(I)] was a pooled human serum sample used to monitor system performance and the other QC [QC(S)] was pooled study samples and this QC was used to monitor data reproducibility. Each QC sample was injected per every 10 study samples. The data were well reproducible with a median CV of 7.0%.

SMILES: NC(=O)c1ccc[n+]([C@@H]2O[C@H](CO)[C@@H](O)[C@H]2O)c1 [NR, Nicotinamide riboside chloride]
- Cardiac hypertrophy [1]: partially reduced
- FS % [1]: increased
- Markers of lipid oxidation (oxidized glutathione) ([2]; TAC mice): decreased
- Cardiac levels of NAD(H) ([2]; WT and Sirt3Ko hearts): increased
- Cardiac levels of methyl-nicotinamide (MeNAM) ([2]; WT and Sirt3Ko hearts): increased
- Cardiac levels of nicotinamide (NAM) ([2]; WT and Sirt3Ko hearts): increased
- NAD+/NADH ratio ([2]; both genotypes, after TAC): normalized
- Metabolites indicative of myocardial fibrosis (hydroxyproline, putrescine, spermidine) ([2]; myocardial tissue of TAC hearts, vs vehicle): reduced
